{"source": "patent US11504410B2", "about": "“Neuroprotection and neuroregeneration by pterostilbene and compositions thereof” (THERAPEUTIC SOLUTIONS INTERNATIONAL, INC., priority 2020, dated 2022)", "key": {"[1]": {"assay": "Relative bioavailability of pterostilbene", "format": "in vivo", "conditions": "compared with creatine monohydrate", "description": "Without being bound by any particular theory, due to its improved solubility, pterostilbene is also expected to have better oral absorption properties compared to various other neuroprotectants. As used herein, “bioavailability” refers to the rate and amount of a drug or supplement that reaches the systemic circulation of a patient following administration of the drug or supplement. […] The terms “treatment,” “treating,” and “treat, are used herein to refer generally to obtaining a desired pharmacological and/or physiological effect. The effect may be prophylactic in terms of completely or partially preventing a disease or symptom thereof and/or may be therapeutic in terms of a partial or complete stabilization or cure for a disease and/or adverse effect attributable to the disease. “Treatment” as used herein covers any treatment of a disease in a subject, and includes: (a) preventing the disease or symptom from occurring in a subject which may be predisposed to the disease or symptom, but has not yet been diagnosed as having it; (b) inhibiting the disease symptom, i.e., arresting its development; or (c) relieving the disease symptom, i.e., causing regression of the disease or symptom."}, "[2]": {"test_system": "classical complement activation pathway", "conditions": "cited from earlier work"}, "[3]": {"test_system": "classical complement activation pathway", "conditions": "15 U intravenously, cited from earlier work"}}}
{"compound": "COc1cc(/C=C/c2ccc(O)cc2)cc(OC)c1", "note": "[pterostilbene]", "values": [{"measurement": "relative bioavailability greater than creatine monohydrate", "setting": "[1]", "result": "at least 50%"}]}
{"compound": "C1-INH: C1-esterase inhibitor, inhibits the classical complement activation pathway", "values": [{"measurement": "mean arterial blood pressure (MABP) and arterial blood gases", "setting": "[2]; rat, in vivo", "result": "unaffected by the treatment"}, {"measurement": "regional cerebral blood flow (rCBF)", "setting": "[2]; rats, after occlusion, versus vehicle", "result": "No difference was noted between experimental groups"}, {"measurement": "reduction of infarct volume", "setting": "[2]; rats, infusion over 30 min after occlusion, evaluated after 5 days survival", "result": 72, "unit": "%"}, {"measurement": "improvement of focal neurologic deficits", "setting": "[3]; 48 hours after ischemia", "result": 54, "unit": "%"}, {"measurement": "improvement of general neurologic deficits", "setting": "[3]; 48 hours after ischemia", "result": 36, "unit": "%"}, {"measurement": "infarct volume of total brain", "setting": "[3]; 48 hours after ischemia", "result": 6.69, "unit": "%+/−2.93%"}, {"measurement": "neutral red staining in cortex, hippocampus, and striatum", "setting": "[3]", "result": "strong protective effect"}]}
